Results on 41 molecules are retold here after the Deep4Chem optical property database.

The nature of this data set: solvent given as SMILES.

Molecules are shown by their SMILES. Several values for one entry are separate records, joined by “and”; a condition that tells them apart may be missing. Equal values may be shown once.

Turning to `CC(=O)[B-]1(C(C)=O)OC(c2ccccc2)=CC(c2ccccc2)=[O+]1`, the fluorescence lifetime amounted to 1.5 ns (in CC#N) and 2.1 ns (in ClC(Cl)(Cl)Cl).

For the molecule `COc1ccc2c3cccc4c(OC)ccc(c5cccc1c52)c43`, the fluorescence lifetime worked out at 3.95 ns (in C1CCOC1); 3.6 ns (in Cc1ccccc1); 3.65 ns (in ClC(Cl)(Cl)Cl); 3.89 ns (in ClC(Cl)Cl); 4.33 ns (in ClCCl); 4.02 ns (in c1ccncc1).

Regarding `CCC(CC)COC1=CC2=C3c4cc(OCC(CC)CC)c(-c5ccccc5)n4[B-](F)(F)[n+]4c3n(c3cc(C(C)(C)C)ccc34)[B-](F)(F)[N+]2=C1c1ccccc1`, the fluorescence lifetime reads like this: (in C1CCOC1) 0.97 ns; (in ClCCl) 1.01 ns.

`c1ccc2c(c1)[nH]c1cccnc12` returned a fluorescence lifetime (in C1CCCCC1) of 4.6 ns.

The molecule `CCN(CC)c1ccc2cc(C#N)/c(=N\C(=O)c3ccco3)oc2c1` came in with a fluorescence lifetime (in ClCCl) of 3 ns.

Molecule `CC1=C(c2ccc(N(c3ccccc3)c3ccccc3)cc2)C(C)=[N+]2C1=C(c1c(-c3ccccn3)nc3ccccn13)c1c(C)c(-c3ccc(N(c4ccccc4)c4ccccc4)cc3)c(C)n1[B-]2(F)F` showed a fluorescence lifetime (in ClCCl) of 0.3 ns.

In turn, `CC(C)(C)c1ccc(C2=c3sc(-c4ccc(C(C)(C)C)cc4)cc3=[N+]3C2=Nc2c(-c4ccc(C(C)(C)C)cc4)c4sc(-c5ccc(C(C)(C)C)cc5)cc4n2[B-]3(F)F)cc1` gave a fluorescence lifetime (in ClC(Cl)Cl) of 1.69 ns.

`Cc1ccccc1-c1ccccc1C`: the fluorescence lifetime (in C1CCCCC1) amounted to 2.5 ns.

`COc1ccc(C2=C3C(C)=CC(C=Cc4ccc(C(=O)OC5C[C@H]6CCC5(C)C6(C)C)cc4)=[N+]3[B-](F)(F)n3c(/C=C/c4ccc(C(=O)OC5CC6CCC5(C)C6(C)C)cc4)cc(C)c32)cc1` (some centres undefined) yielded a fluorescence lifetime (in Cc1ccccc1) of 2.6 ns.

Under “in ClC(Cl)Cl”, `CC(C)(C)c1ccc(Oc2c3c4c(cc(Oc5ccc(C(C)(C)C)cc5)c5c6c(Oc7ccc(C(C)(C)C)cc7)c(Oc7ccc(C(C)(C)C)cc7)c7c8c(cc(Oc9ccc(C(C)(C)C)cc9)c(c(c2Oc2ccc(C(C)(C)C)cc2)c45)c86)C(=O)OC7=O)C(=O)OC3=O)cc1` returned a fluorescence lifetime of 6 ns.

As for `Cc1ccc(-c2cc(-c3ccc(N(C)C)cc3)c3c(N)nc(N4CCCC4)c(C#N)c3n2)cc1`, the fluorescence lifetime reads like this: (in CC#N) 7.3 ns; (in CC(C)=O) 10.3 ns; (in CC(C)O) 11.2 ns; (in CO) 3.6 ns; (in ClC(Cl)Cl) 11.5 ns; (in ClCCl) 12.6 ns. This molecule returned a fluorescence lifetime (in c1ccccc1) of 10.7 ns.

Consider `COc1ccc(/C=C/c2ccc(-c3ccc(C)cn3)nc2)cc1`, for which the fluorescence lifetime (in CC#N) was 0.58 ns.

Turning to `CCCCCCCCc1ccc(-c2ccc(/C=C(\C#N)c3ccc(-c4cccc5cccc(-c6ccc(/C(C#N)=C/c7ccc(-c8ccc(CCCCCCCC)cc8)cc7)cc6)c45)cc3)cc2)cc1`, the fluorescence lifetime (in Cc1ccccc1) was determined as 4.9 ns.

`CCC1=C(C)C2=Cc3c(I)c(I)c(I)n3[B-](F)(F)[N+]2=C1C` had a fluorescence lifetime (in C1CCCCC1) of 0.358 ns; a fluorescence lifetime (in CC(C)=O) of 0.198 ns; a fluorescence lifetime (in CCO) of 0.244 ns; a fluorescence lifetime (in CCOC(C)=O) of 0.236 ns; a fluorescence lifetime (in CO) of 0.22 ns; a fluorescence lifetime (in OCC(F)(F)F) of 0.18 ns.

For the setting “in O=P(c1ccccc1)(c1ccccc1)c1ccccc1Oc1ccccc1P(=O)(c1ccccc1)c1ccccc1”, `CC1(C)c2ccccc2-c2cc3c4cc(-n5c6ccccc6c6ccccc65)ccc4n(-c4ccc(-c5nc(-c6ccccc6)nc(-c6ccccc6)n5)cc4)c3cc21` showed a fluorescence lifetime of 34 ns.

As to `O=C1CCCc2c1[nH]c1cc3c(cc21)OCO3`, the fluorescence lifetime turned out to be 0.442 ns (in C1CCOC1); 0.481 ns (in C1COCCO1); 0.978 ns (in CC#N); 1.36 ns (in CCCCCCCCCCCCO); 1.28 ns (in CCCCCCCCCCO); 1.25 ns (in CCCCCCCCO). Also, the fluorescence lifetime is, setting by setting: (in CCCCCCO) 1.22 ns; (in CCCCO) 1.12 ns; (in CCO) 1.36 ns; (in CCOC(C)=O) 0.476 ns; (in CN(C)C=O) 0.838 ns; (in CO) 1.78 ns. Besides, the fluorescence lifetime came to 1.43 ns (in CS(C)=O), 2.29 ns (in O) and 0.466 ns (in c1ccccc1).

As to `CCc1ccc(-n2c3ccccc3c3cc4c(cc32)c2ccccc2n4-c2ccc(CC)cc2)cc1`, the fluorescence lifetime (in ClC(Cl)Cl) worked out at 3.62 ns.

With `COc1ccc2c(c1)sc1[n+]2[B-](F)(F)OC(c2ccc(N(C)C)cc2)=N1`, the fluorescence lifetime (in Cc1ccccc1) was 1.59 ns.

Regarding `CC1(C)c2ccccc2N(c2ccc(C(=CC#N)c3ccc(N4c5ccccc5C(C)(C)c5ccccc54)cc3)cc2)c2ccccc21`, for the setting “in Cc1ccccc1”, the fluorescence lifetime was found to be 5.09 ns.

As to `CC(C)(C)[Si](C)(C)c1ccc([Si](C)(C)C(C)(C)C)c2ccccc12`, for the setting “in C1CCCCC1”, the fluorescence lifetime came out at 12 ns.

The molecule `CC1=CC(C)=[N+]2C1=C(c1ccc(-c3ccc(O)cc3)s1)c1c(C)cc(C)n1[B-]2(F)F` gave a fluorescence lifetime (in Cc1ccccc1) of 3.5 ns.

In turn, `C[Si](C)(C)C#Cc1ccc(C#C[Si](C)(C)C)c2ccccc12` displayed a fluorescence lifetime (in C1CCCCC1) of 2 ns.

`CN(C)CCCN1c2ccccc2CCc2ccc(Cl)cc21`: the fluorescence lifetime was 0.22 ns (in CC#N), 0.19 ns (in CO) and 0.18 ns (in O).

Take `C[n+]1ccc(-c2cc[n+](C)cc2)cc1`: the fluorescence lifetime (in CC#N) came out at 0.9 ns.

As to `CCN(CC)c1ccc2c(C)cc(=O)oc2c1`, the fluorescence lifetime by setting is: (in C1CCCCC1) 2.8 ns; (in CC#N) 3.4 ns; (in CCCCCCCCO) 3.69 ns; (in CCCCCCO) 3.68 ns; (in CCCCO) 3.55 ns; (in CCCO) 3.48 ns. The fluorescence lifetime (in CCO) is 3.15 ns and 2.04 ns and 3.1 ns; the fluorescence lifetime (in CCOC(C)=O) is 3.1 ns; the fluorescence lifetime (in CO) amounted to 1.94 ns; the fluorescence lifetime (in O) worked out at 0.36 ns; the fluorescence lifetime (in OCC(O)CO) came out at 3.8 ns.

In turn, `COC(=O)c1cc(=O)n(C)c2cc(-c3cc(OC)c(OC)c(OC)c3)sc12` displayed a fluorescence lifetime (in ClCCl) of 1.36 ns.

For `c1ccc2cc3cc(-c4cc(-c5nccs5)nc(-c5nccs5)c4)ccc3cc2c1`, the fluorescence lifetime was found to be 6.92 ns (in CC#N), 3.35 ns (in CCCCCC), 4.04 ns (in CO) and 4.22 ns (in ClC(Cl)Cl).

Regarding `N#Cc1ccc(C#Cc2ccc(C#Cc3ccc(C#Cc4ccccc4C#N)cc3C#N)cc2C#N)cc1`, the fluorescence lifetime by setting is: (in C1CCOC1) 1.23 ns; (in CC#N) 1.79 ns; (in CN(C)C=O) 1.61 ns; (in ClC(Cl)Cl) 1.14 ns; (in c1ccccc1) 1.65 ns.

Molecule `C(=C\c1cc(-c2ccc3ccccc3c2)c(/C=C/c2ccc(N(c3ccccc3)c3ccccc3)cc2)cc1-c1ccc2ccccc2c1)/c1ccc(N(c2ccccc2)c2ccccc2)cc1` returned a fluorescence lifetime (in ClCCl) of 1.17 ns.

Take `C[Si]1(C)c2ccc(-c3cccs3)cc2C=Cc2cc(-c3cccs3)ccc21`: the fluorescence lifetime (in ClCCl) was 2 ns.

For the molecule `N#Cc1coc2ccccc2c1=O`, the fluorescence lifetime amounted to 0.93 ns (in C1CCOC1); 3.6 ns (in C1COCCO1); 2.17 ns (in CC#N); 1.86 ns (in CC(C)O); 0.96 ns (in CCCCO); 2.03 ns (in CCCO). Besides, the fluorescence lifetime reads like this: (in CCOC(C)=O) 1.05 ns; (in CN(C)C=O) 1.77 ns; (in CO) 0.59 ns; (in CS(C)=O) 1.92 ns; (in ClC(Cl)Cl) 2.54 ns; (in O) 1.36 ns.

`C[Si]1(C)c2cc(-c3cccs3)ccc2C=Cc2ccc(-c3cccs3)cc21` showed a fluorescence lifetime (in ClCCl) of 1.4 ns.

As to `c1cc2c3c(cccc3c1)C(N1CCOCCOCCOCCOCC1)=N2`, the fluorescence lifetime (in CC#N) was 0.55 ns.

Turning to `CC(C)(C)c1ccc(C(C)(C)C)c(N2C(=O)c3cccc4c(-c5ccc(-c6ccc(N(c7ccccc7)c7ccccc7)cc6)s5)ccc(c34)C2=O)c1`, the fluorescence lifetime (in Cc1ccccc1) was 2.6 ns.

As for `COCCOCCOCCN1C(=O)c2cc(NCCOCCO)c3c4c(cc(NCCOCCO)c(c24)C1=O)C(=O)N(CCOCCOCCOC)C3=O`, the fluorescence lifetime runs as follows: (in CO) 8.2 ns; (in ClC(Cl)Cl) 9.6 ns; (in O) 4.3 ns.

`CCOc1cc2c(cc1/C=C/C1=CC(=C(C#N)C#N)CC(C)(C)C1)c1ccccc1n2CC`: the fluorescence lifetime by setting is: (in C1CCOC1) 4.47 ns; (in CC#N) 3.81 ns; (in CCO) 4.28 ns; (in CCOC(C)=O) 7.08 ns; (in CN(C)C=O) 4.01 ns; (in CS(C)=O) 4.94 ns. The fluorescence lifetime runs as follows: (in Cc1ccccc1) 3.84 ns; (in ClC(Cl)Cl) 4.37 ns; (in ClCCl) 6.24 ns.

In the case of `C(/C=C/c1cc2c3c(c1)CCCN3CCC2)=C\c1ccncc1`, the fluorescence lifetime by setting is: (in C1COCCO1) 0.25 ns; (in CC#N) 0.57 ns.

Take `O=Cc1ccc(C2=C3C=c4c(oc5ccccc45)=[N+]3[B-](F)(F)n3c2cc2c4ccccc4oc23)cc1`: the fluorescence lifetime stood at 2.47 ns (in C1CCCCC1); 2.09 ns (in C1CCOC1); 2.38 ns (in CC#N); 2.12 ns (in CCOC(C)=O); 2.3 ns (in CN(C)C=O); 2.73 ns (in CO). This molecule also returned a fluorescence lifetime (in Cc1ccccc1) of 2.44 ns and a fluorescence lifetime (in ClCCl) of 2.49 ns.

Turning to `CCCCCCCCCCCCOc1ccc(C#Cc2ccc(C#Cc3ccc(OCCCCCCCCCCCC)c(OCCCCCCCCCCCC)c3)c3nc4c5ccccc5c5ccccc5c4nc23)cc1OCCCCCCCCCCCC`, the fluorescence lifetime reads like this: (in C1CCOC1) 8.22 ns; (in Cc1ccccc1) 7.13 ns; (in ClCCl) 8.62 ns.

Where the note is “in c1ccc(-n2c(-c3c(-n4c5ccccc5c5ccccc54)cccc3-n3c4ccccc4c4ccccc43)nc3ccccc32)cc1”, `CC1(C)c2ccccc2N(c2ccc(-c3nnc(-c4cc(-c5ccccc5)c(-c5ccccc5)c(-c5ccccc5)c4-c4ccccc4)o3)cc2)c2ccccc21` returned a fluorescence lifetime of 5.5 ns.

For `COc1nc(Nc2ccc3cc4ccccc4cc3c2)nc(OC)n1`, the fluorescence lifetime is 12.2 ns (in C1COCCO1) and 8.2 ns (in CCOC(C)=O).
